Source: patent US7070965B1, “Small molecule anticancer compounds and related production process” (priority 1998, dated 2006)
In brackets after ≈: the same amount, converted by molar mass.

Experiments:
[1] = system: human hepatocellular carcinoma LCI-D35; test: Orthotopic nude mice model of human hepatocellular carcinoma LCI-D35; format: in vivo, athymic BALB/c nude mice
Experimental: 13-methyltetradecanoic acid (iso-C15) was chemically synthesized in the inventor's laboratory, as described in Example 5, infra, (purity of 99.8%), was prepared by dissolving in NaOH solution and then in 0.35% Tween 80 with pH7.5.
Total of 16 male and female athymic BALB/c nude mice between 4 and 5 weeks of age were bred and maintained in specific pathogen free condition.
Human hepatocellular carcinoma LCI-D35 was originally obtained from the primary tumor of a patient. The tumor was implanted and maintained subcutaneously in athymic nude mice. Prior to orthotopic implantation, the tumor was harvested in log phase. The peripheral tumor tissue was collected and minced to small pieces of one cubic millimeter each.
The mice were anesthetized for surgical orthotopic implantation. A small incision was made along the midline of the upper abdomen. The left lobe of the liver was exposed and a small incision was made on the liver surface. Two of the tumor fragments above were sutured into the incision using 8-0 suture. The abdomen was then closed using a 6-0 surgical suture.
The mice bearing orthotopic LCI-D35 were randomly divided into control and test groups of eight mice each at the second day after tumor implantation. The iso-C15 prepared above at dose 70 mg/kg and PBS were administered by gavage once a day in the test and control group, respectively, for 40 days.
All the mice were sacrificed by CO2 inhalation at day-40 after the start of treatment. The weights of primary tumors and bodies were measured. Tissue samples of the primary tumors were processed through standard procedures of hematoxylin and eosin staining for microscopic examination.
The tumor inhibition rates (TIR) were determined by comparing the mean tumor weight of the test groups (T) with that of the control group (C) and expressed as a (C)−T)/C percentage, and were analyzed by Student's test for statistical significance.

normal human PBLs = test: Flow cytometry annexin V / PI apoptosis detection; format: cell-based; conditions: 60 μg/ml, 24 hours
Experimental: (§1) Human cancer cell lines DU-145 (prostate cancer), K562 (leukemia), HCT116 (colon cancer), H1688 (lung cancer), SUN423 (hepatocarcinoma), MCF7 (breast cancer), CRL-1687 (pancreatic cancer), and SUN-1 (gastric cancer) were obtained from American Type Culture Collection (ATCC). 30 ml blood was collected from a health person and normal peripheral mononuclear cells were separated by Ficoll separation solution (Sigma). All cells were maintained in RPMI 1640, DMEM, or McCoy medium supplemented with 10% FCS, […] streptomycin and 100 u/ml penicillin. Normal human peripheral mononuclear cells, K562 and SUN-1 were suspended cells. After spinning at 1,500 RPM for 5 min, supernatants were discharged and cells were resuspended and expended in fresh medium. The other tumor cell lines were adherent cells and were dispersed with 0.05% trypsin/0.01% EDTA (Irvine Scientific, CA) for expansion. Cells were seeded in T75 flasks at 2×10^6 cells/flask in culture medium supplemented with 10% fetal bovine serum and incubated overnight at 37° C. with 5% CO2. The adherent cells attached to the plate were striped with disposable cell scrapers (Fisher Scientific) after treated either with 1% iso-C15, anteiso-C15 or control solution for 1, 2, 4, 8 and 24 hours and then combined with respective float cells. Cells were then prepared for flow cytometry analysis, in situ cell death detection, DNA fragmentation and Western blot assay followed the preparation methods for each assay. Cell pellets treated for 2 and 4 hr with either iso-C15 or control were also stored at −70° C. for future studies of gene regulation.
(§2) A flow cytometer (FACScan) with Consort 30 software for gating analysis (Becton Dickinson, San Jose, Calif.) was used. The Apoptosis Detection kit (R&D Systems) was used to quantitatively determine the percentage of cells undergoing apoptosis by virtue of their ability to bind annexin V and exclude propidium iodide (PI). Cells were washed in cold PBS twice and resuspended in binding buffer. Fluorescent-labeled annexin V and PI were added to the cells. The cells undergoing apoptosis, expressing phosphotidyiserine on the outer leaflet of cell membranes, would bind annexin V. The cells in later stage of apoptosis or necrosis, with a compromised cell membrane, would allow PI to bind to the cellular DNA. The resulting cells were immediately analyzed by flow cytometer equipped with a single laser emitting excitation light at 488 nm. The annexin V and PI generated signals can be detected in signal detector FL1 and FL2, respectively. […]

[2] = system: K562 human leukemia cells; test: Flow cytometry annexin V / PI apoptosis detection; format: cell-based; conditions: 30 μg/ml, 24 hours
Experimental: as §1, §2

SNU-1 cells = test: In situ cell death detection (TUNEL, fluorescence microscopy); format: cell-based, human; conditions: 60 μg/ml, 8 hours
Text: In Situ Cell Death Detection Kit, POD (Mannheim Boehringer GmbH) was used to detect the individual apoptotic cells. Cleavage of genomic DNA during apoptosis may yield double-stranded, low molecular weight DNA fragments as well as single strand breaks in high molecular weight DNA. Those DNA strand breaks can be identified by labeling free 3′-OH termini with modified nucleotides in an enzymatic reaction. In this kit terminal deoxynucleotidyl transferase (TdT) is used to label free 3′-OH ends in genomic DNA with fluorescein-dUTP. The incorporated fluorescein is visualized under fluorescence microscope directly. The incorporated fluorescein can also bind to anti-fluorescein antibody POD and be detected by substrate reaction. Stained cells can be analyzed under light microscope.
Four human tumor cell lines, K-562 human leukemia, SNU-1 human gastric carcinoma cell lines, MCF-7 human breast adenocarcinoma and H1688 human small cell lung carcinoma cell lines, as well as Human PBLs were treated with iso-C15 (60 μg/ml).
SNU-1 cells treated with iso-C15 for 8 hours were added with TUNEL-reaction mixture and incubated 60 min at 37° C. After washing with PBS for three times, cell morphology was analyzed directly under fluorescence microscopy.

K-562 human leukemia = test: Cytotoxicity ID50/ID75/ID90, viability assessment; format: cell-based; conditions: 48 hours
Experimental: (§3) PBLs, K-562 and SNU-1 cells in suspension culture were seeded in 96-well microplates at a density of 5×10^4 cells/well for K-562 and SNU-1, and 1×10^5 cells/well for PBLs. iso-C15 were diluted with medium to provide different concentrations (0, 1.5, 3.0, 6.0, 15.0, 30.0, and 60.0 μg/ml). Both untreated and solvent (NaOH and Tween 80) treated cells served as controls. After incubation for 48 hours at 37° C., cells were collected directly from the wells for viability assessment.
(§4) The ID50, ID75 and ID90 were determined in duplicate in every set of experiments, and each experiment was repeated three times under identical conditions. ID50, ID75 and ID90 were defined as the concentration of iso-C15 required to kill 50, 75 or 90%, respectively, of cells (compared with that in untreated cells) and computed using CalcuSyn for Windows software (Biosoft, Cambridge UK) based on Median Effect method by Dr. T. C. Chou.

[3] = system: SNU-1 human gastric carcinoma; test: Cytotoxicity ID50/ID75/ID90, viability assessment; format: cell-based; conditions: 48 hours
Experimental: as §3, §4

CC(C)CCCCCCCCCCCC(=O)O [iso-C15, 13-methyltetradecanoic acid]
signs of toxicity (body weight curve, histology slides) ([1]; 70 mg/kg oral): no signs of toxicity | TIR (tumor inhibition rate) ([1]; 70 mg/kg oral, 40 days): 64.9% | tumor weight mean ± SD ([1]; 70 mg/kg oral, 40 days): 0.071 ± 0.052 g | mice in which the implanted tumor did not grow ([1]; 70 mg/kg, eight mice per group): two | FL1/FL2 pattern (annexin V / PI), effect on normal lymphocytes (normal human PBLs): no significant effects | FL1/FL2 pattern (annexin V / PI), apoptosis [2]: the majority of the cells were undergoing apoptosis | apoptotic cells, TUNEL fluorescence (SNU-1 cells): Several yellow fluorescent spots of apoptotic cells were noted | ID75 (K-562 human leukemia): 22.27 ± 4.60 µg/mL (≈ 91.9 µM) | ID90 (K-562 human leukemia): 43.57 ± 6.71 µg/mL (≈ 180 µM) | ID75 [3]: 47.43 ± 4.95 µg/mL (≈ 196 µM) | ID90 [3]: 80.49 ± 10.03 µg/mL (≈ 332 µM)
